Laboratory results taken from patent US20260174814A1 (DR. OREGONIN INC., priority 2023, published 2026).

Experiment: Protective effect on dexamethasone-induced myotube cell damage (MTT assay)
Format: cell-based
Settings: mouse, C2C12 cells differentiated into myotubes, 5 μM dexamethasone alone, read-out: decrease of cell viability compared to the control group not treated with dexamethasone
Description: C2C12 cells, a myoblast derived from mouse skeletal muscle, were purchased from American Type Culture Collection (ATCC) and used. C2C12 cells were cultured in a 37° C.-wet CO2 incubator (5% CO2/95% air) using a cell culture medium in which 10% fetal bovine serum (FBS), 100 units/mL penicillin, and 100 μg/mL streptomycin were added to Dulbecco's Modified Eagle Medium (DMEM). When the cells were 80% full, the cell monolayer was washed with phosphate buffer saline (PBS, pH 7.4), trypsin-2.65 mM EDTA was added thereto, and the cells were detached and subcultured, and the medium was exchanged every 2 days. In order to induce differentiation into myotubes of C2C12 cells, the cells were cultured by exchange with a myocyte differentiation culture medium in which 2% horse serum (HS) was added to DMEM medium, and the myocyte differentiation culture medium was exchanged every 2 days.
C2C12 cells were seeded in 24-well plate at 5×10^4 cells/well and cultured for 24 hours. Thereafter, in order to induce differentiation into myotubes of C2C12 cells, the cell culture medium was exchanged with the myocyte differentiation culture medium to induce differentiation for 4 days. […] After the cells were cultured for 24 hours, MTT assay was performed in the same manner as described above to measure the cell viability.

Q: With `C[C@@H]1C[C@H]2[C@@H]3CCC4=CC(=O)C=C[C@]4(C)[C@@]3(F)[C@@H](O)C[C@]2(C)[C@@]1(O)C(=O)CO` [dexamethasone] as the compound, how does the cytotoxicity at 24 h, 5 μM read?
A: ~10%
